Measurements: patent US10266548B2, “Substituted benzylindazoles for use as Bub1 kinase inhibitors in the treatment of hyperproliferative diseases” (Bayer Intellectual Property GmbH, priority 2011, dated 2019)
Where a name gives a salt, the structure may show the parent alone. Read-outs that look alike come from different tables or passages of the source.

Experiments:
[1] = tested on: HeLa cells; test: Proliferation assay (HeLa cell line); assay type: cell-based; details: read-out: Biological Assay 2: Proliferation assay (HeLa cell line) median IC50
[2] = target: catalytic domain of human Bub1 (amino acids 704-1085) (Homo sapiens (Human), UniProt O43683); test: Bub1 kinase assay (TR-FRET); assay type: biochemical; details: 10 μM ATP, 1 μM peptide substrate; read-out: Biological Assay 1: Bub1 kinase assay median IC50
In short: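 Phosphoserine product detected by TR-FRET (Eu-labeled anti-mouse IgG/anti-phosphoserine antibody to streptavidin-XL665) after 1 h at 22 °C. IC50 from 4-parameter logistic fit.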

[3] = Homo sapiens, 96 h, 4 days, crystal violet

Chain of catalytic domain of human Bub1 (amino acids 704-1085) (O43683 704-1085): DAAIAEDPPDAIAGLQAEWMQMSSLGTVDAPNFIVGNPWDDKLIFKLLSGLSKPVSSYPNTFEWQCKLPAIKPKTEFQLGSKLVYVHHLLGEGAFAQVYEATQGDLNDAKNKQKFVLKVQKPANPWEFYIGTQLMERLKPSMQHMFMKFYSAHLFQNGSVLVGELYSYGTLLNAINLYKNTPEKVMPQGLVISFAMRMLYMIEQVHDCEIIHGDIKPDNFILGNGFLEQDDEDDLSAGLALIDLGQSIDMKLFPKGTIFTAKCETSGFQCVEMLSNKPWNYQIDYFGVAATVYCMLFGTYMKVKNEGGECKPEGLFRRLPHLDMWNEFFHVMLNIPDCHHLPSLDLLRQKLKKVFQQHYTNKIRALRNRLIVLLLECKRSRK

| SMILES | IC50 [1, 3] | IC50 [2] | IC50 ([1]; 4 days, crystal violet) | IC50 ([1]; Homo sapiens, 96 h) |
| --- | --- | --- | --- | --- |
| COc1ccc(Cn2nc(-c3ncc(OC4CC4)c(Nc4ccncc4)n3)c3ccccc32)cc1 [Example 14-1, 5-(cyclopropyloxy)-2-[1-(4-methoxybenzyl)-1H-indazol-3-yl]-N-(pyridin-4-yl)pyrimidin-4-amine] |  | 3300 nM |  | ≥ 10 µM |
| OC[C@H](O)COc1cnc(-c2nn(Cc3ccccc3F)c3ccccc23)nc1Nc1ccncc1 [Example 15-2, (2S)-3-({2-[1-(2-fluorobenzyl)-1H-indazol-3-yl]-4-(pyridin-4-ylamino)pyrimidin-5-yl}oxy)propane-1,2-diol hydrochloride (1:1)] |  | 5.5 nM |  | ≥ 10 µM |
| COc1cnc(-c2nn(Cc3c(Cl)cccc3Cl)c3ccccc23)nc1Nc1ccncc1 [Example 15-4, 2-[1-(2,6-dichlorobenzyl)-1H-indazol-3-yl]-5-methoxy-N-(pyridin-4-yl)pyrimidin-4-amine hydrochloride (1:1)] |  | 7.3 nM |  | ≥ 10 µM |
| CCOc1cc(F)c(Cn2nc(-c3nccc(N(C(=O)C4CCOCC4)c4ccncc4)n3)c3ccccc32)c(F)c1 [Example 16-3, N-{2-[1-(4-ethoxy-2,6-difluorobenzyl)-1H-indazol-3-yl]pyrimidin-4-yl}-N-(pyridin-4-yl)tetrahydro-2H-pyran-4-carboxamide] |  | 210 nM |  | 4.1 µM |
| CCOc1cc(F)c(Cn2nc(-c3nccc(N(CCO)c4ccncc4)n3)c3ccccc32)c(F)c1 [Example 17-1, 2-[{2-[1-(4-ethoxy-2,6-difluorobenzyl)-1H-indazol-3-yl]pyrimidin-4-yl}(pyridin-4-yl)amino]ethanol] | ≥ 10 µM | 170 nM |  |  |
| CCOc1cc(F)c(Cn2nc(-c3nccc(N(CC4(CO)COC4)c4ccncc4)n3)c3ccccc32)c(F)c1 [Example 17-2] |  | 2400 nM | ≥ 10 µM |  |
| COc1cnc(-c2nn(Cc3c(OCC(F)(F)F)cc(Br)cc3OCC(F)(F)F)c3ccccc23)nc1Nc1ccncc1 [Example 18-2] |  | 2800 nM | 3.5 µM |  |
| COc1cnc(-c2nn(Cc3c(Cl)ccc(C(=O)N(C)C)c3Cl)c3ccccc23)nc1Nc1ccncc1 [Example 20-3, 2,4-dichloro-3-({3-[5-methoxy-4-(pyridin-4-yla-mino)pyrimidin-2-yl]-1H-indazol-1-yl}methyl)-N,N-dimethyl-benzamide] |  | 1200 nM |  | 4.1 µM |
| COc1cnc(-c2nn(Cc3c(Cl)ccc(C(=O)NCCO)c3Cl)c3ccccc23)nc1Nc1ccncc1 [Example 20-4, 2,4-dichloro-N-(2-hydroxyethyl)-3-({3-[5-methoxy-4-(pyridin-4-yla-mino)pyrimidin-2-yl]-1H-indazol-1-yl}methyl) benzamide] | ≥ 10 µM | 750 nM |  |  |
| COc1cnc(-c2nn(Cc3c(Cl)ccc(C(=O)N4CCOCC4)c3Cl)c3ccccc23)nc1Nc1ccncc1 [Example 20-5, [2,4-dichloro-3-({3-[5-methoxy-4-(pyridin-4-yla-mino)pyrimidin-2-yl]-1H-indazol-1-yl}methyl)phenyl] (morpholin-4-yl)methanone] | 5.9 µM | 8800 nM |  |  |
| COc1cnc(-c2nn(Cc3ccccc3F)c3ccccc23)nc1N(C)c1ccncc1 [Example 23-1, 2-[1-(2-fluorobenzyl)-1H-indazol-3-yl]-5-methoxy-N-methyl-N-(pyridin-4-yl)pyrimidin-4-amine] | ≥ 10 µM | 1400 nM |  |  |
| COc1cnc(-c2nn(Cc3ccccc3F)c3ccccc23)nc1Nc1ccncc1 [Example 24-3, 2-[1-(2-fluorobenzyl)-1H-indazol-3-yl]-5-methoxy-N-(pyridin-4-yl)pyrimidin-4-amine] |  | 13 nM |  | 9.3 µM |
| COc1ccc(Cn2nc(-c3ncc(OC)c(Nc4cc[nH]c(=O)c4)n3)c3ccccc32)cc1 [Example 24-7, 4-({5-methoxy-2-[1-(4-methoxybenzyl)-1H-indazol-3-yl]pyrimidin-4-yl}amino)pyridin-2(1H)-one] |  | 1200 nM |  | 10 µM |
| CCOc1cc(F)c(Cn2nc(-c3ncc(OC)c(Nc4cc[nH]c(=O)c4)n3)c3ccccc32)c(F)c1 [Example 24-8, 4-({2-[1-(4-ethoxy-2,6-difluorobenzyl)-1H-indazol-3-yl]-5-methoxypyrimidin-4-yl}amino)pyridin-2(1H)-one] |  | 26 nM |  | 10 µM |
| COc1ccc(Cn2nc(-c3ncc(OC)c(Nc4ccncc4C(F)(F)F)n3)c3ccccc32)cc1 [Example 27-1, 5-methoxy-2-[1-(4-methoxybenzyl)-1H-indazol-3-yl]-N-[3-(trifluoromethyl)pyridin-4-yl]pyrimidin-4-amine] |  | 55 nM |  | 3.9 µM |

Now from value to molecule, other results behind:

| IC50 [1, 3] | IC50 [2] | IC50 ([1]; 4 days, crystal violet) | SMILES | IC50 ([1]; Homo sapiens, 96 h) |
| --- | --- | --- | --- | --- |
| ≥ 10 µM | 8.6 nM |  | O=C(OCCO)c1cnccc1Nc1nc(-c2nn(Cc3ccccc3F)c3ccccc23)ncc1OCCO [Example 13-6, 2-hydroxyethyl 4-({2-[1-(2-fluorobenzyl)-1H-indazol-3-yl]-5-(2-hydroxyethoxy)pyrimidin-4-yl}amino)pyridine-3-carboxylate] |  |
|  | 5.7 nM | 1.7 µM | CCOc1cc(F)c(Cn2nc(-c3ncc(OCCO)c(Nc4ccncc4)n3)c3ccccc32)c(F)c1 [Example 15-3, 2-({2-[1-(4-ethoxy-2,6-difluorobenzyl)-1H-indazol-3-yl]-4-(pyridin-4-ylamino)pyrimidin-5-yl}oxy)ethanol hydrochloride (1:1)] |  |
|  | 12 nM | 9.9 µM | COc1cnc(-c2nn(Cc3c(Cl)ccc(CO)c3Cl)c3ccccc23)nc1Nc1ccncc1 [Example 15-5, [2,4-dichloro-3-({3-[5-methoxy-4-(pyridin-4-ylamino)pyrimidin-2-yl]-1H-indazol-1-yl}methyl)phenyl] methanol hydrochloride (1:1)] |  |
| 2.8 µM | 170 nM |  | CCOc1cc(F)c(Cn2nc(-c3nccc(N(C(C)=O)c4ccncc4)n3)c3ccccc32)c(F)c1 [Example 16-1, N-{2-[1-(4-ethoxy-2,6-difluorobenzyl)-1H-indazol-3-yl]pyrimidin-4-yl}-N-(pyridin-4-yl)acetamide] |  |
| 3.5 µM | 23 nM |  | CCOc1cc(F)c(Cn2nc(-c3nccc(N(C(=O)COC)c4ccncc4)n3)c3ccccc32)c(F)c1 [Example 16-2, N-{2-[1-(4-ethoxy-2,6-difluorobenzyl)-1H-indazol-3-yl]pyrimidin-4-yl}-2-methoxy-N-(pyridin-4-yl)acetamide] |  |
| 2.7 µM | 20 nM |  | CCOc1cc(F)c(Cn2nc(-c3nccc(N(C(=O)COCCOC)c4ccncc4)n3)c3ccccc32)c(F)c1 [Example 16-4, N-{2-[1-(4-ethoxy-2,6-difluorobenzyl)-1H-indazol-3-yl]pyrimidin-4-yl}-2-(2-methoxyethoxy) N-(pyridin-4-yl)acetamide] |  |
| 1.4 µM | 16 nM |  | COc1cnc(-c2nn(Cc3c(F)cc(Br)cc3OCC(F)(F)F)c3ccccc23)nc1Nc1ccncc1 [Example 18-1, 2-{1-[4-bromo-2-fluoro-6-(2,2,2-trifluoroethoxy)benzyl]-1H-indazol-3-yl}-5-methoxy-N-(pyridin-4-yl)pyrimidin-4-amine] |  |
|  | 6.3 nM | ≥ 10 µM | CCOc1cc(F)c(Cn2nc(-c3ncc(OCC(=O)O)c(Nc4ccncc4)n3)c3ccccc32)c(F)c1 [Example 19-2] |  |
| 3.3 µM | 40 nM |  | COc1cnc(-c2nn(Cc3c(Cl)ccc(C(N)=O)c3Cl)c3ccccc23)nc1Nc1ccncc1 [Example 20-2, 2,4-dichloro-3-({3-[5-methoxy-4-(pyridin-4-yla-mino)pyrimidin-2-yl]-1H-indazol-1-yl}methyl) benzamide] |  |
| 3.8 µM | 28 nM |  | C#Cc1ccc(Cn2nc(-c3ncc(OC)c(Nc4ccncc4)n3)c3ccccc32)c(F)c1 [Example 21-1, 2-[1-(4-ethynyl-2-fluorobenzyl)-1H-indazol-3-yl]-5-methoxy-N-(pyridin-4-yl)pyrimidin-4-amine] |  |
| ≥ 10 µM | 62 nM |  | COc1cnc(-c2nn(Cc3ccccc3F)c3ccccc23)nc1Nc1ccncc1C#N [Example 24-1, 4-({2-[1-(2-fluorobenzyl)-1H-indazol-3-yl]-5-methoxypyrimidin-4-yl}amino)pyridine-3-carbonitrile] |  |
| ≥ 10 µM | 13 nM |  | COc1cnc(-c2nn(Cc3ccccc3F)c3ccccc23)nc1Nc1ccncc1C(N)=O [Example 25-1, 4-({2-[1-(2-fluorobenzyl)-1H-indazol-3-yl]-5-methoxypyrimidin-4-yl}amino)pyridine-3-carboxamide] |  |
|  | 5.4 nM | ≥ 10 µM | CCCc1ccc(Cn2nc(-c3ncc(OC)c(Nc4ccncc4C(N)=O)n3)c3ccccc32)cc1 [Example 25-2] |  |
| 4.4 µM | 8.8 nM |  | CCOc1cc(F)c(Cn2nc(-c3ncc(OC)c(Nc4ccncc4C(N)=O)n3)c3ccccc32)c(F)c1 [Example 25-3, 4-({2-[1-(4-ethoxy-2,6-difluorobenzyl)-1H-indazol-3-yl]-5-methoxypyrimidin-4-yl}amino)pyridine-3-carboxamide] |  |
|  | 5.03 nM | 10 µM | COc1cnc(-c2nn(Cc3c(F)cc(O)cc3F)c3ccccc23)nc1Nc1ccncc1C(N)=O [Example 25-4] |  |
| 9.2 µM | 17 nM |  | N#Cc1cnccc1Nc1nc(-c2nn(Cc3ccccc3F)c3ccccc23)ncc1O [Example 26-1, 4-({2-[1-(2-fluorobenzyl)-1H-indazol-3-yl]-5-hydroxypyrimidin-4-yl}amino)pyridine-3-carbonitrile] |  |
| ≥ 10 µM | 11 nM |  | CNC(=O)c1ccc(Cn2nc(-c3ncc(OC)c(Nc4ccncc4)n3)c3ccccc32)c(Cl)c1 [Example 29-1, formic acid-3-chloro-4-({3-[5-methoxy-4-(pyridin-4-ylamino)pyrimidin-2-yl]-1H-indazol-1-yl}methyl)-N-methylbenzamide (1:1)] |  |
